Data as given in PubChem BioAssay AID2060627 (Molecular Pharmacology Branch, DTP, NCI, 2025).

Test system: 156681-154-R-J1-PDC complex spheroid viability
Assay: Anticancer human tumor 156681-154-R-J1-PDC patient-derived melanoma cell line growth inhibition [CLK]
Settings: for IC50: curve of first compound; for viability, T/C: stronger effect = lower value
In short: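 Multi-cell-type spheroids combined patient-derived tumor cells with HUVEC endothelial cells and human mesenchymal stem cells. Paired agents were dosed in half-log steps down from about clinical Cmax, or from 10 microM where Cmax was unknown.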
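Further: spheroids exposed to the agents for seven days.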
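Wherever viability, T/C is given: 100% = DMSO vehicle control viability.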

Q: Which results are given for `NC(=O)C(=Cn1cnc(-c2cc(C(F)(F)F)cc(C(F)(F)F)c2)n1)c1cncnc1` + CNC(=O)c1ccc(Nc2nc(OC3CCCC3)c3c(-c4ccc5nc(C)oc5c4)c[nH]c3n2)c(OC)c1?
A: IC50 (second compound 0.0316 µM): 61.9 nM; IC50 (second compound 0.1 µM): < 9.49 nM; IC50 (second compound 0.316 µM): 33.2 nM; IC50 (second compound 1 µM): < 9.49 nM; IC50 (second compound 3.16 µM): < 9.49 nM; IC50 (second compound 10 µM): < 9.49 nM; viability, T/C (second compound 0.0316 µM, first compound 0.00949 µM): 64.7%; viability, T/C (second compound 0.0316 µM, first compound 0.03 µM): 81%; viability, T/C (second compound 0.0316 µM, first compound 0.0949 µM): 36.6%; viability, T/C (second compound 0.0316 µM, first compound 0.3 µM): 14%; viability, T/C (second compound 0.0316 µM, first compound 0.949 µM): 6.14%; viability, T/C (second compound 0.0316 µM, first compound 3 µM): 3.87%; viability, T/C (second compound 0.1 µM, first compound 0.00949 µM): 37.9%; viability, T/C (second compound 0.1 µM, first compound 0.03 µM): 52.5%; viability, T/C (second compound 0.1 µM, first compound 0.0949 µM): 33%; viability, T/C (second compound 0.1 µM, first compound 0.3 µM): 18.4%; viability, T/C (second compound 0.1 µM, first compound 0.949 µM): 6.15%; viability, T/C (second compound 0.1 µM, first compound 3 µM): 4.5%; viability, T/C (second compound 0.316 µM, first compound 0.00949 µM): 52.4%; viability, T/C (second compound 0.316 µM, first compound 0.03 µM): 53.7%; viability, T/C (second compound 0.316 µM, first compound 0.0949 µM): 23.7%; viability, T/C (second compound 0.316 µM, first compound 0.3 µM): 7.53%; viability, T/C (second compound 0.316 µM, first compound 0.949 µM): 3.12%; viability, T/C (second compound 0.316 µM, first compound 3 µM): 3.35%; viability, T/C (second compound 1 µM, first compound 0.00949 µM): 40.3%; viability, T/C (second compound 1 µM, first compound 0.03 µM): 45%; viability, T/C (second compound 1 µM, first compound 0.0949 µM): 7.8%; viability, T/C (second compound 1 µM, first compound 0.3 µM): 1.43%; viability, T/C (second compound 1 µM, first compound 0.949 µM): 1.06%; viability, T/C (second compound 1 µM, first compound 3 µM): 0.77%; viability, T/C (second compound 3.16 µM, first compound 0.00949 µM): 37.5%; viability, T/C (second compound 3.16 µM, first compound 0.03 µM): 22.1%; viability, T/C (second compound 3.16 µM, first compound 0.0949 µM): 4.21%; viability, T/C (second compound 3.16 µM, first compound 0.3 µM): 1.37%; viability, T/C (second compound 3.16 µM, first compound 0.949 µM): 1.03%; viability, T/C (second compound 3.16 µM, first compound 3 µM): 0.18%; viability, T/C (second compound 10 µM, first compound 0.00949 µM): 28.5%; viability, T/C (second compound 10 µM, first compound 0.03 µM): 24.2%; viability, T/C (second compound 10 µM, first compound 0.0949 µM): 3.92%; viability, T/C (second compound 10 µM, first compound 0.3 µM): 1%; viability, T/C (second compound 10 µM, first compound 0.949 µM): 1.5%; viability, T/C (second compound 10 µM, first compound 3 µM): 0.26%
